Data set [1] is described as follows: chemical recovery from spiked human plasma; higher = better extraction. The note with it: pooled human plasma.
Data set [2] is described as follows: chemical recovery by SPE of plasma after PDMS sampling; higher = better extraction. As to conditions: pooled human plasma, extraction method: HLB SPE of plasma after PES.
Data set [3] in a line: chemical recovery into PDMS from spiked human plasma; higher = better extraction. As to conditions: pooled human plasma, extraction method: PES with PDMS.
[4] abbreviates: extraction method: PES+SPE (3 d PDMS equilibration then HLB SPE).
[5] abbreviates: extraction method: SPE only (HLB 96-well).
Setting [6] is: extraction method: SPE only (HLB 96-well), PES comparison experiment.
[7] abbreviates: extraction method: solvent precipitation (ACN + hexane).

± gives the standard deviation.
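Throughout, for chemical recovery by SPE of plasma after PDMS sampling: over 400 spiked chemicals quantified by LC-HRMS or GC-HRMS via internal standard calibration, recovery relative to spike mix added to unspiked plasma extract to correct matrix effects.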

Regarding `CC/C(=C(\c1ccccc1)c1ccc(OCCN(C)C)cc1)c1ccccc1` [Tamoxifen], the chemical recovery is 0.265 ± 0.056% in data set [1] (setting [4]), 39.4 ± 8.3% in data set [1] (setting [5]) and 38.5 ± 11% in data set [1] (setting [6]). Further, the “chemical recovery by SPE of plasma” value in data set [2] (equilibration time (d): 1) amounted to 0.427 ± 0.08%; in data set [2] (equilibration time (d): 3), 0.167 ± 0.14%; in data set [2] (equilibration time (d): 6), 0.104 ± 0.056%.
With `CC(C)(c1cc(Br)c(O)c(Br)c1)c1cc(Br)c(O)c(Br)c1` [Tetrabromobisphenol A], the values for the chemical recovery in data set [1] (setting [6]) and in data set [1] (setting [7]) were 29.4 ± 10% and 14.4 ± 1.4%, respectively. In addition, in data set [2] (equilibration time (d): 3), the “chemical recovery by SPE of plasma” value is 30.4 ± 11%.
As to `CCCCNc1ccc(C(=O)OCCN(C)C)cc1` [Tetracain], the chemical recovery in data set [1] (setting [4]) turned out to be 0.105 ± 0.0078%; in data set [1] (setting [5]), 2.67 ± 1.9%. The “chemical recovery by SPE of plasma” value in data set [2] (equilibration time (d): 1) stood at 0.00668 ± 0.0083%.
For `O=c1[nH]nc(C(F)(F)F)s1` [Thiadone], the chemical recovery in data set [1] (setting [6]) was found to be 15.9 ± 4.4%. Further, the “chemical recovery by SPE of plasma” value came out at 47.9 ± 6.8% in data set [2] (equilibration time (d): 3) and 41.5 ± 14% in data set [2] (equilibration time (d): 6).
On to `Cc1cccc(Nc2ccncc2S(=O)(=O)NC(=O)NC(C)C)c1` [Torasemide], for which the chemical recovery in data set [1] (setting [4]) is 38.9 ± 4.2%; in data set [1] (setting [5]) it was 43.8 ± 3.6%; in data set [1] (setting [6]), 49.1 ± 3.4%; in data set [1] (setting [7]) it was 73.1 ± 4.1%. The figures for the “chemical recovery by SPE of plasma” value in data set [2] (equilibration time (d): 1), in data set [2] (equilibration time (d): 3) and in data set [2] (equilibration time (d): 6) were 50.8 ± 5.4%, 54 ± 2.9% and 50.9 ± 2.3%, respectively.
`C[C@]12C=CC(=O)C=C1CC[C@H]1[C@@H]3C[C@@H](O)[C@](O)(C(=O)CO)[C@@]3(C)C[C@H](O)[C@@]12F` [Triamcinolone]: the chemical recovery in data set [1] (setting [6]) turned out to be 50.5 ± 3.2%. The results for the “chemical recovery by SPE of plasma” value in data set [2] (equilibration time (d): 1), in data set [2] (equilibration time (d): 3) and in data set [2] (equilibration time (d): 6) were 55.2 ± 12%, 58.4 ± 5.8% and 54.9 ± 10%, respectively.
Consider `COP(=O)(OC)C(O)C(Cl)(Cl)Cl` (stereo not given) [Trichlorfon], for which the chemical recovery in data set [1] (setting [4]) was 13.2 ± 1.2%; in data set [1] (setting [5]), 33.1 ± 1.9%; in data set [1] (setting [6]), 43.1 ± 8.1%; in data set [1] (setting [7]) it was 0.0499 ± 0.086%. Besides, the “chemical recovery by SPE of plasma” value in data set [2] (equilibration time (d): 1) came to 30.8 ± 2.4%; in data set [2] (equilibration time (d): 3), 25.3 ± 0.61%; in data set [2] (equilibration time (d): 6), 18.2 ± 1.2%.
The molecule `CC[C@H]1OC(=O)C[C@@H](O)[C@H](C)[C@@H](O[C@@H]2O[C@H](C)[C@@H](O[C@H]3C[C@@](C)(O)[C@@H](O)[C@H](C)O3)[C@H](N(C)C)[C@H]2O)[C@@H](CC=O)C[C@@H](C)C(=O)/C=C/C(C)=C/[C@@H]1CO[C@@H]1O[C@H](C)[C@@H](O)[C@@H](OC)[C@H]1OC` [TylosinCH4O] displayed a chemical recovery in data set [1] (setting [6]) of 33.9 ± 4.8%. Also, the “chemical recovery by SPE of plasma” value turned out to be 30.2 ± 3.2% in data set [2] (equilibration time (d): 1), 35.1 ± 4.1% in data set [2] (equilibration time (d): 3) and 33 ± 2.3% in data set [2] (equilibration time (d): 6).
In the case of `CCCc1nc(C)c2c(=O)nc(-c3cc(S(=O)(=O)N4CCN(CC)CC4)ccc3OCC)[nH]n12` [Vardenafil], in data set [1] (setting [6]), the chemical recovery was determined as 35.1 ± 8.2%. For the same molecule, the “chemical recovery by SPE of plasma” value in data set [2] (equilibration time (d): 1) turned out to be 13.4 ± 2.1%; in data set [2] (equilibration time (d): 3), 7.22 ± 1.1%; in data set [2] (equilibration time (d): 6), 4.01 ± 0.43%.
`CC(=O)CC(c1ccccc1)c1c(O)c2ccccc2oc1=O` (stereo not given) [Warfarin]: the chemical recovery came out at 50 ± 3.2% in data set [1] (setting [4]), 44.9 ± 2.1% in data set [1] (setting [5]), 56.6 ± 4.3% in data set [1] (setting [6]) and 72.5 ± 6.1% in data set [1] (setting [7]). In addition, the “chemical recovery by SPE of plasma” value is 62.2 ± 10% in data set [2] (equilibration time (d): 1), 66.6 ± 3.5% in data set [2] (equilibration time (d): 3) and 62.8 ± 4.6% in data set [2] (equilibration time (d): 6).
As to `O=C1Cc2cc(CCN3CCN(c4nsc5ccccc45)CC3)c(Cl)cc2N1` [Ziprasidone], the chemical recovery worked out at 22.9 ± 2.4% in data set [1] (setting [4]), 38.7 ± 2.6% in data set [1] (setting [5]), 41.5 ± 7.6% in data set [1] (setting [6]) and 76 ± 9.8% in data set [1] (setting [7]). Also, the “chemical recovery by SPE of plasma” value in data set [2] (equilibration time (d): 1) stood at 37.1 ± 6.7%; in data set [2] (equilibration time (d): 3), 34 ± 4.3%; in data set [2] (equilibration time (d): 6) it was 25.3 ± 2.6%.
As to `C(=C/c1ccccc1)/c1ccccc1` [cis-Stilbene], the results for the chemical recovery in data set [1] (setting [5]) and in data set [1] (setting [6]) were 3.93 ± 0.065% and 3.65 ± 1.4%, respectively. The “chemical recovery by SPE of plasma” value in data set [2] (equilibration time (d): 6) was found to be 0.481 ± 2.9%.
In the case of `Cc1ccc(S(=O)(=O)O)c(C)c1` [m-Xylene-4-sulfonic acid], the results for the chemical recovery in data set [1] (setting [5]), in data set [1] (setting [6]) and in data set [1] (setting [7]) were 46.9 ± 14%, 45.2 ± 4.9% and 74.3 ± 4.9%, respectively. For the same molecule, the figures for the “chemical recovery by SPE of plasma” value in data set [2] (equilibration time (d): 3) and in data set [2] (equilibration time (d): 6) were 36.3 ± 2.3% and 38.3 ± 8.9%, respectively.
Consider `C/C(=C\c1ccccc1)c1ccccc1` [trans-a-Methylstilbene], for which the “chemical recovery into PDMS” value in data set [3] (equilibration time (d): 3) was 97.6 ± 13%; in data set [3] (equilibration time (d): 6), 112 ± 44%.

The values above are taken from the supplement of paper PMC10702517.
